Assay results published in patent EP3871665B1, “INHIBITORS OF RNA-BINDING PROTEINS AS ANTI-CANCER DRUGS” (priority 2020, dated 2021).

Columns and labels:
[1] = biological target: T1, IGF2BP1 (Homo sapiens, UniProt Q9NZI8); assay: Site-specific protein modification (Cys-to-Dha conversion), LC-MS/MS readout; format: biochemical
T1 construct: made in house
Procedure: (§1) Statistical significance was analyzed by logrank test. […] Modified cysteines are highlighted in bold and upper position. […] Right: Local atomic fluctuations around cysteine residues. […] (A-C) RNA-dependent protein-protein association assay. […] EV (1) indicates mock-transfected controls. Representative Western (A) and Northern (C) blots are shown. P, pulldown; I, input. […] A representative Western blot analysis is shown in (C). […] Six mice were analyzed per condition. Error bars indicate standard deviation. […] Error bars indicate standard deviation of three analyses. […] DMSO-treated cells were used for comparisons. […] (*) p < 0.05, (**) p < 0.01, (***) p < 0.001. […] Data represent the mean ± SD (n = 6). […] (**) p < 0.01.
A multiple-Cys-containing RNA-binding protein with a recognized role in cancer is selected, for example and not limited to, the Insulin-like growth factor 2 mRNA binding protein 1 (IGF2BP1). It is then expressed in bacteria (not limited to), purified and submitted to site-specific protein modification reactions in vitro using cysteine-directed probes (Cys-to-Dha conversion), for example and not limited to, the compound 2,5 dibromohexanediamide (1). The reactions are performed in mild conditions, PBS buffer pH 8.0 for 1 h at 37∘C, using increasing equivalents of 1. The resulting reaction is then purified with a spin column and submitted to trypsin digestion followed by LC-MS/MS using standard protocols. The identification of Dha-modified peptides is performed by adding the corresponding mass shift of 33.9878 m/z (Dha) as a post-translational modification in the global search for modifications. The Dha conversion of specific cysteine residues is located within the primary sequence of the protein of interest (POI) to uncover preferentially modified cysteine residues.

[2] = test system: ES-2 IGF2BP1-KO cells re-expressing GFP-IGF2BP1C253/336A; assay: 2D growth / proliferation (cell confluence, IncuCyte S3), cells re-expressing C253/336A mutant; format: cell-based
Procedure: as §1
(§2) To probe if the identified residues are druggable targets, a search for chemical probes with exquisite chemo- and regioselectivity to cysteine residues was performed and their ability to target IGF2BP1's Cys253 and Cys336 was tested, whilst functioning as inhibitors. […] Both probes are known to covalently modify cysteine residues in a highly site-specific manner. […] The initial assay was set to observe if the probes influence the 2D growth, determined here as cell density, of ES-2 cells in a IGF2BP1-Cys253/336-dependent manner. IC50 values were determined by measuring the cell viability or cell confluence of cells incubated with increasing concentrations of J2 and J5.

[3] = test system: ES-2 IGF2BP1-KO cells re-expressing GFP-IGF2BP1; assay: 2D growth / proliferation (cell confluence, IncuCyte S3), cells re-expressing wild type IGF2BP1; format: cell-based
Procedure: as §1
To probe if the identified residues are druggable targets, a search for chemical probes with exquisite chemo- and regioselectivity to cysteine residues was performed and their ability to target IGF2BP1's Cys253 and Cys336 was tested, whilst functioning as inhibitors. […] Both probes are known to covalently modify cysteine residues in a highly site-specific manner. […] These probes were then used in ES-2 IGF2BP1 KO cells, re-expressing either the wild type version of IGF2BP1 or the C253/336A mutant. The initial assay was set to observe if the probes influence the 2D growth, determined here as cell density, of ES-2 cells in a IGF2BP1-Cys253/336-dependent manner. IC50 values were determined by measuring the cell viability or cell confluence of cells incubated with increasing concentrations of J2 and J5.

[4] = Drug-likeness assessment / solubility in the assays; format: physicochemical
[5] = test system: ES-2 IGF2BP1-KO cells re-expressing the wild type GFP-IGF2BP1; assay: Cell viability (CellTiter Glo), cells re-expressing wild type IGF2BP1; format: cell-based
Procedure: as §1
To probe if the identified residues are druggable targets, a search for chemical probes with exquisite chemo- and regioselectivity to cysteine residues was performed and their ability to target IGF2BP1's Cys253 and Cys336 was tested, whilst functioning as inhibitors. […] The initial assay was set to observe if the probes influence the 2D growth, determined here as cell density, of ES-2 cells in a IGF2BP1-Cys253/336-dependent manner. IC50 values were determined by measuring the cell viability or cell confluence of cells incubated with increasing concentrations of J2 and J5.

[6] = test system: xenografts bearing ES-2 cells re-expressing the wild-type IGF2BP1 (GFP-IGF2BP1); details: 0.1 mg/kg daily intraperitoneally; GFP-IGF2BP1 tumors
Procedure: (§3) (A) Representative images of tumor cell spheroids (top panel), tumor cell invasion in matrigel (middle panel), and spheroid growth in anoikis resistance assays (lower panel) observed for ES-2 IGF2BP1-KO cells re-expressing GFP (1), wild type GFP-IGF2BP1 (2) or GFP- IGF2BP1-C253/336A (3). (B) Quantification of 2 independent experiments (n=9) shown in (A): spheroid viability (left panel), invasion index (middle panel) and anoikis resistance (right panel). Statistical significance was calculated by unpaired t-test as indicated. […] Tumor formation was determined for ES-2 IGF2BP1-KO cells re-expressing wild type IGF2BP1 (GFP-I1, 1) or GFP-IGF2BP1-C253/336A (GFP-C253/336A, 2). The tumor volume was measured at indicated time points post-injection by a caliper, (A). The final volume (B) and weight (C) of removed tumors were determined and are shown by boxplots. Representative images of macroscopic tumors acquired by non-invasive infrared imaging in mice (D) and excised tumors 17d post-injection (E). Six mice were analyzed per condition. Error bars indicate standard deviation. Statistical significance was calculated by unpaired t test with Welch's correction or ordinary one-way ANOVA with Tukey's multiple comparison test. […] 2000 cells either from ES-2 IGF2BP1-KO cells re-expressing GFP-IGF2BP1 or GFP-IGF2BP1C253/336A were seeded in a 96 well plate.

[7] = test system: ES-2 IGF2BP1-KO cells re-expressing the GFP-IGF2BP1C253/336A mutant; assay: Cell viability (CellTiter Glo), cells re-expressing C253/336A mutant; format: cell-based; details: cell viability 72h, read-out: IC50C253/336A
Procedure: as §1, §2

[8] = test system: tumors bearing ES-2 cells re-expressing the C253/336A mutant; assay: Xenograft tumor growth, ES-2 cells re-expressing C253/336A mutant; format: in vivo, female SCID mice; details: 0.1 mg/kg daily intraperitoneally
Procedure: as §3

[9] = test system: panel of cancer cell lines; assay: Cell proliferation (IncuCyte S3 confluence) in a panel of cancer cell lines; format: cell-based; details: 72h
[10] = test system: ES-2 IGF2BP1-KO cells re-expressing GFP-IGF2BP1C253/336A; assay: Spheroid Matrigel invasion assay, cells re-expressing C253/336A mutant; format: cell-based; details: up to 6 µM; 24h post-treatment
Procedure: as §3

T1 sequence (Q9NZI8 whole entry): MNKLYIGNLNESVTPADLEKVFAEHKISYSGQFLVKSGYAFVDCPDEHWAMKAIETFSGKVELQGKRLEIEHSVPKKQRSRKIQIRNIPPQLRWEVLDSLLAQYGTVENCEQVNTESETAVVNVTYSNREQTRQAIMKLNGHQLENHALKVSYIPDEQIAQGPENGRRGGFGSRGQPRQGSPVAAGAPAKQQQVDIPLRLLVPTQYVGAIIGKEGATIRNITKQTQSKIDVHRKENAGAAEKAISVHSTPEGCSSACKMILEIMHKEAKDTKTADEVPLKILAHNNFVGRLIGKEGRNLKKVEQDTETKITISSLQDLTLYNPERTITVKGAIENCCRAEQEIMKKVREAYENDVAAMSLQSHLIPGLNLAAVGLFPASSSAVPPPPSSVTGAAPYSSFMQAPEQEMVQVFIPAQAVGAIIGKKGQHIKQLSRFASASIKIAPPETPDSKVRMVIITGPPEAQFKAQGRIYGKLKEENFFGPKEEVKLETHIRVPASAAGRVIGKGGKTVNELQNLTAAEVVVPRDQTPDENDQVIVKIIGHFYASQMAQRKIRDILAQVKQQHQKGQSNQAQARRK

| Compound | equivalents at which Cys253 was modified ([1]; PBS buffer pH 8.0, 1 h, 37°C) | equivalents at which Cys336 was modified ([1]; PBS buffer pH 8.0, 1 h, 37°C) | equivalents at which Cys336 was modified, in some reactions ([1]; in some reactions) | equivalents at which almost all cysteines (exception Cys110) were modified ([1]; in vitro) | growth of cells ([2]; 1µM, cells expressing the C253/336A mutant) | IC50 ([2]; Homo sapiens, ES-2 cells expressing the C253/336A mutant, confluence at 72h) | growth of ES-2 cells ([3]; 1µM, cells re-expressing the wild type protein) | IC50 ([3]; cells expressing wild type IGF2BP1, confluence at 72h, DMSO = 100% growth) | selective cytoreductive effect ([3]; wild type vs C253/336A mutant cells) | solubility [4] | IC50 ([5]; cell viability 72h, CellTiter Glo) | selectivity to ES-2 cells re-expressing the wild type IGF2BP1 ([5]; wild type vs C253/336A) | anti-tumor effect (tumor volume, tumor mass) [6] | IC50 [7] | anti-tumor effect (tumor volume, tumor mass) [8] | potency in a panel of cancer cell lines [9] | invasion [10] |
| --- | --- | --- | --- | --- | --- | --- | --- | --- | --- | --- | --- | --- | --- | --- | --- | --- | --- |
| NC(=O)C(Br)CCC(Br)C(N)=O (stereo not drawn) [compound 1, 2,5 dibromohexanediamide] | 200 eq | 300 eq | 200 eq | above 500 eq |  |  |  |  |  |  |  |  |  |  |  |  |  |
| O=C(/C=C/C(=O)c1ccccc1)NCCNc1ccc([N+](=O)[O-])c2nonc12 [J2, (E)-N-(2-((7-nitrobenzo[c][1,2,5]oxadiazol-4-yl)amino)ethyl)-4-oxo-4-phenylbut-2-enamide] |  |  |  |  | no substantial impact | 2200 nM | strong impairment | 840 nM | 2 fold | solubility problems |  |  |  |  |  |  |  |
| CCNC(=O)/C=C/C(=O)c1ccccc1 [J5, (E)-N-ethyl-4-oxo-4-phenylbut-2-enamide] |  |  |  |  |  |  |  |  |  | much higher solubility | 970 nM | 1.8 fold | strong anti-tumor effect | 1750 nM | absolutely no effect | potency as anti-cancer drug in all of them | unchallenged invasion |
